Experimental data taken from patent publication US5859034A, “Tri-substituted phenyl compounds which have useful pharmaceutical activity” (Celltech Therapeutics, Limited, priority 1996, dated 1999).

Target: T1, recombinant PDE IVA enzyme (Homo sapiens, UniProt P27815)
T1 construct: made in house; host or cells: yeast (inducible vector)
Experiment: Isolated Recombinant Human PDE IVA Enzyme
Format: biochemical
Conditions: 0.1 μM [3H]-cAMP, pH 7.5, 30° C.
Description: 1. Isolated Recombinant Human PDE IVA Enzyme
A gene encoding human PDE IV has been cloned from human monocytes (Livi, et al., 1990, Molecular and Cellular Biology, 10, 2678). Using similar procedures we have cloned human PDE IV genes from a number of sources including eosinophils, neutrophils, lymphocytes, monocytes, brain and neuronal tissues. These genes have been transfected into yeast using an inducible vector and various recombinant proteins have been expressed which have the biochemical characteristics of PDE IV (Beavo and Reifsnyder, 1990, TIPS, 11, 150). These recombinant enzymes, particularly the human eosinophil recombinant PDE IVA, have been used as the basis of a screen for potent, selective PDE IV inhibitors.
The enzymes were purified to isoenzyme homogeneity using standard chromatographic techniques.
Phosphodiesterase activity was assayed as follows. The reaction was conducted in 150 μl of standard mixture containing (final concentrations): 50 mM 2-[[tris(hydroxymethyl)methyl]amino]-1-ethanesulphonic acid (TES) --NaOH buffer (pH 7.5), 10 mM MgCl2, 0.1 μM [^3 H]-cAMP and vehicle or various concentrations of the test compounds. […] Recovery of [^3 H]-5'AMP was determined using the [^14 C]-5'AMP and all assays were conducted in the linear range of the reaction. Results were expressed as IC50 values.

T1 sequence (P27815 whole entry): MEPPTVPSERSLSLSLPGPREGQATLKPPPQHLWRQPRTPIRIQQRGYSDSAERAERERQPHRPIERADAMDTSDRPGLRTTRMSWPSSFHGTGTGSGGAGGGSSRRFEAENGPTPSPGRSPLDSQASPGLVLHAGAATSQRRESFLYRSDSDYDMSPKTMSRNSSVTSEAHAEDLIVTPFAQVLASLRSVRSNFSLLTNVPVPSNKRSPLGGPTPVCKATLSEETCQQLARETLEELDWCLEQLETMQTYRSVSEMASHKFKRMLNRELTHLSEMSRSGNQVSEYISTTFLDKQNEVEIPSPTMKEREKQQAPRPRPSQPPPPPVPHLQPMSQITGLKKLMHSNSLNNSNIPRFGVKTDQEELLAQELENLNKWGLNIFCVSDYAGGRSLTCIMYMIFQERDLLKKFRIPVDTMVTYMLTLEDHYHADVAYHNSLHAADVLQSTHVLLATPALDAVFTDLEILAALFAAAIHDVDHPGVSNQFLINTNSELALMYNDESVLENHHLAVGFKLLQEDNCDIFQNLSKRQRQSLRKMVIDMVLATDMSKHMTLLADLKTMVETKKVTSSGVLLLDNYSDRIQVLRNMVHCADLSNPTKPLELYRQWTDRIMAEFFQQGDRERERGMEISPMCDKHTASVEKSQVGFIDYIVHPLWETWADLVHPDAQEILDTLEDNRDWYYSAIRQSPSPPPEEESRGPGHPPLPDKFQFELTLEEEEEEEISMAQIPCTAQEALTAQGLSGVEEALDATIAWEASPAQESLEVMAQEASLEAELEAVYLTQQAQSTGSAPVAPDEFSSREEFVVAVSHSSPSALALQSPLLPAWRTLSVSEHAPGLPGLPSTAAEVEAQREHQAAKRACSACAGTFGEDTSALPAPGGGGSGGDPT

| IC50 | Structure (SMILES) |
| --- | --- |
| 0.5 nM | CNC(=NC#N)Nc1cccc([C@@H](Cc2ccncc2)c2ccc(OC)c(OC3CCCC3)c2)c1 [Example 4, (R)-N"-Cyano-N'-{3-[1-[3-cyclopentyloxy-4-methoxyphenyl]-2-(4-pyridinyl)ethyl]phenyl}-N-methylamine] |
| 3.3 nM | CNC(=C[N+](=O)[O-])Nc1cccc([C@@H](Cc2ccncc2)c2ccc(OC)c(OC3CCCC3)c2)c1 [Example 2, (R)-N-{(EIZ)-1-{3-[1-[3-Cyclopentyloxy-4-methoxyphenyl]-2-(4-pyridinyl)ethyl]anilino}-2-nitroethenyl}-N-methylamine] |
